Data taken from patent US8791099B2, “Transition metal complexes of corroles for preventing cardiovascular diseases or disorders” (Technion Research and Development Foundation Ltd., priority 2007, dated 2014).
Marks after values point to notes of the source that are not given here.

Tests used:
[1] = test system: Apolipoprotein E deficient mice (E^0 mice); experiment: Histopathology of aortic atherosclerosis lesions in E^0 mice; type: in vivo; details: oral, drinking water 0.04 mM (0.2 mg per mouse per day), 10 weeks; for Decrease in average lesion area relative to the control group: 1-Fe: mean of the four mice with lesions
Source text: At the end of the experiment, the mice were sacrificed and each heart and entire aorta were rapidly dissected out from each mouse and immersion-fixed in 3% glutaraldehyde in 0.1 mol/L sodium cacodylate buffer with 0.01% calcium chloride, pH 7.4, at room temperature. The first 4 mm of the aortic arch was stained with osmium tetroxide, which colors all the lipid components a dark brown-black color thus enabling delineation of the lesion with greater accuracy. The blocks were embedded in epon resin and thin transverse sections were cut to allow greater resolution of the lesion details. The area covered by the lesion was determined by image analysis (Coleman et al., 2006).
Two of the mice receiving that treatment did actually not develop atherosclerotic lesions at all and the average lesion area for the other four mice was 60% smaller than that obtained for the control mice. These observations are much better than those obtained by other methods, including E^0 mice that were treated by natural anti-oxidants (48% reduction when consuming red wine (Hayek et al., 1997; Fuhrman et al., 1995) and 44% for pomegranate juice (Aviram et al., 2000)) or those that were intraperitoneally-treated with different synthetic catalysts for decomposition of reactive oxygen species.

[2] = Oxidation of DMSO to formaldehyde by peroxynitrite; details: pH 7.4, T=25°C, yield relative to [PN]0; PN alone 11.5%
Experimental: The final pH of the solutions was 7.4 and the temperature was maintained at 24° C. After 5 min of stirring, a 0.3 ml NaOH solution (7.8 M) was added to each tube for analyzing the amount of formed formaldehyde. This was immediately followed by supplying the tubes with 0.3 mL of 34.2 mM Purpald® (a color forming reagent for the determination of aldehydes; Aldrich Chemical Co.) in 480 mM HCl; and a second incubation with continuous shaking was performed for 10 min at 24° C. The thus obtained reaction product between formaldehyde and Purpald® was oxidized to a colored compound by the addition of 0.3 mL 470 mM KIO4 in 470 mM NaOH. The absorbance at 550 nm was measured with a spectrophotometer and the amount of formaldehyde was determined by using a standard curve obtained from formaldehyde solutions of known concentrations (a linear curve was obtained by drawing final O.D. at 550 nm versus initial formaldehyde concentrations).
(§1) These particular molecules were specifically chosen because they represent targets of hydroxyl radical, nitrogen dioxide, and of oxygen transfer reagents. In addition, their reaction products are easily identified and quantified by established methods.

J-774 macrophages = experiment: Corrole-mediated cholesterol efflux from J-774 macrophages; type: cell-based, Murine; details: lipoprotein-free medium, 10, 25 or 50 μM, 4 hour, dose-dependent
Experimental: Murine J-774 cells (1×10^6/mL) were plated in 24-well plates for 24 hours, then washed and incubated for 1 hour in serum-free DMEM that contained ^3H-cholesterol (2 μCi/mL) and BSA (0.2%). […] After a 4-hour incubation at 37° C. to permit efflux of ^3H-cholesterol from the cells into the medium, 500 μL of the medium was collected. The cells were washed with PBS, 1 mL of 0.1 N NaOH was added to the cells and 500 μL was collected the next day. Medium and cellular ^3H-cholesterol were determined by liquid scintillation counting (LSC). […] Corrole-mediated cholesterol efflux was calculated after subtraction of the non-specific efflux obtained in cells incubated in the absence of corroles.
A still further indication for a favorable alteration of cellular cholesterol transport by metallocorroles was obtained by studying cholesterol efflux from J-774 macrophages in a lipoprotein-free medium. The iron complex (but not the manganese and gallium complexes) of corrole 1 increased the cholesterol efflux by up to 20% in a dose-dependent fashion.

[3] = Oxidation of DMSO by copper sulfate/ascorbate; details: CuSO4/ascorbate as initiator; 50 μM corrole, 18 hr
Experimental: Reaction was initiated by adding a mixture of CuSO4 and phenanthroline (final concentration of 8 μM for each), followed by sodium ascorbate (500 μM). […]
Additional experiments were carried out by using CuSO4/ascorbate as the initiator of reactive oxygen species (by the complex Fenton-type oxidation that produces hydroxyl radical via the involvement of superoxide anion radical and hydrogen peroxide), as to bridge between the results of the small molecules and those obtained by oxidation of LDL.

LDL = experiment: Interaction of LDL with corroles (absorbance before/after dialysis); type: binding, human; details: 10 μM corrole, 100 mg LDL protein/L (0.2 μM), dialyzed against PBS
Experimental: The solutions where extensively dialyzed against PBS, and the electronic spectrum was measured again. The difference in the absorbance can be used to calculate the number of corrole molecules bound to LDL [HDL].
Possible interactions between the corroles and LDL were investigated prior to the examinations of the effect of the corroles on LDL oxidation. This was performed by recording the absorbance spectrum of 10 μM aqueous corrole solutions before and after addition of 100 mg of LDL protein/L (corresponding to a molar concentration of 0.2 μM). […] This large number is quite reasonable since the LDL particle is very large and may not encompass specific binding sites, but rather the amphiphilic nature of the examined corroles renders them ideal for positioning in the phospholipid monolayer of the LDL, with the hydrophilic head groups sticking out toward the aqueous phase, as previously proposed for amphiphilic porphyrins (Camejo et al., 1998; Bonneau et al., 2004). In any case, no corrole is expected to be free in solution at the maximal corrole concentration used in the forthcoming experiments, namely, 5 μM per 100 mg of LDL protein/L (about 25 corrole molecules per LDL particle).

[4] = Nitration of fluorescein by peroxynitrite; details: pH 7.4, T=25°C, relative to [fluorescein]0; PN alone 30%
Experimental: The changes in fluorescein absorbance were measured on the UV/vis spectrophotometer. The yield of nitration was determined by converting absorbance to changes in concentration of fluorescein and nitrated fluorescein, using pre-determined extinction coefficients. For increased accuracy, the three wavelengths in which the largest changes in absorbance occur were used. The yields were calculated based on the initial substrate concentration.
as §1

[5] = test system: Apolipoprotein E deficient mice (E^0 mice); experiment: Serum total cholesterol in E^0 mice; type: in vivo; details: drinking water 0.04 mM (0.2 mg per mouse per day), 10 weeks
Source text: a) For atherosclerosis evaluation: At an age of about 10 weeks, 24 E^0 mice were randomly divided into 4 groups of 6 mice each.
The sacrificed mice were also examined with regard to other factors relevant to the development of atherosclerosis.

[6] = Decomposition of peroxynitrite, comparison with punicalagin; details: for Minimal concentration required for reducing the half lifetime of peroxynitrite by 50%: calculated from rate constants
Experimental: For initial assessment of possible superiority of the metallocorroles relative to natural antioxidants, we have determined the effect of excess (45-135 μM) punicalagin—the active polyphenolic hydrolysable tannin ingredient of pomegranate juice (Tzulker et al., 2007), on decomposition of peroxynitrite (40 μM).

[7] = Oxidation of tetramethylene sulfoxide to sulfolane by peroxynitrite
Experimental: The sulfolane was extracted into diethyl ether after 10 min of stirring and quantified by GC analysis. The same experiment was done at pH 12.7, with a reaction time of 4 hr.
as §1

[8] = pH 7.4, T=25°C, yield relative to [PN]0, PN alone 3.14%
[9] = pH 12.7, yield relative to [PN]0, PN alone 83%

Compound: O=S(=O)(O)c1cc2[n]3c1C(c1c(F)c(F)c(F)c(F)c1F)=C1C=CC4=[N+]1[Fe-]31[n]3c(cc(S(=O)(=O)O)c3-2)C(c2c(F)c(F)c(F)c(F)c2F)=c2ccc([n]21)=C4c1c(F)c(F)c(F)c(F)c1F (stereo not drawn) [1-Fe, 5,10,15-tris(pentafluorophenyl)-2,17-bis(sulfonic acid)-corrolato iron(III)]
- Mice (of six) that did not develop atherosclerotic lesions at all [1]: Two and two
- Decrease in average lesion area relative to the control group [1]: 60%
- Yield of formaldehyde from DMSO [2]: 0%
- Increase of cholesterol efflux from J-774 macrophages (J-774 macrophages): increases
- Increase of cholesterol efflux from J-774 macrophages (J-774 macrophages; listed as iron complex): up to 20%
- Inhibition of the oxidation of DMSO to malonaldehyde [3]: completely
- Decrease of absorbance after dialysis (LDL): 10%
- Yield of nitrofluorescein from fluorescein [4]: 4%^(a)
- Total serum cholesterol lower than in the control group [5]: 40%
- Times more effective than punicalagin in peroxynitrite decomposition [6]: 5000 times
- Minimal concentration required for reducing the half lifetime of peroxynitrite by 50% [6]: 0.05 mol %
- Yield of sulfolane from tetramethylenesulfoxide [7, 8]: 0.1%^
- Yield of sulfolane from tetramethylenesulfoxide [7, 9]: 0.4%^(b)

Compound: O=S(=O)(O)c1cc2[n]3c1C(c1c(F)c(F)c(F)c(F)c1F)=C1C=CC4=[N+]1[Mn-]31[n]3c(cc(S(=O)(=O)O)c3-2)C(c2c(F)c(F)c(F)c(F)c2F)=c2ccc([n]21)=C4c1c(F)c(F)c(F)c(F)c1F (stereo not drawn) [1-Mn, 5,10,15-tris(pentafluorophenyl)-2,17-bis(sulfonic acid)-corrolato manganese(III)]
- Decrease in average lesion area relative to the control group [1]: 17%
- Yield of formaldehyde from DMSO [2]: 0%
- Increase of cholesterol efflux from J-774 macrophages (J-774 macrophages): not
- Inhibition of the oxidation of DMSO to malonaldehyde [3]: 65%
- Decrease of absorbance after dialysis (LDL): 20%
- Yield of nitrofluorescein from fluorescein [4]: 0%
- Total serum cholesterol lower than in the control group [5]: 26%
- Times more effective than punicalagin in peroxynitrite decomposition [6]: 100 times
- Minimal concentration required for reducing the half lifetime of peroxynitrite by 50% [6]: 2.5 mol %
- Yield of sulfolane from tetramethylenesulfoxide [7, 8]: 0.18%
- Yield of sulfolane from tetramethylenesulfoxide [7, 9]: 0.6%^(b)
